Data: patent US20040052734A1, “Process for providing a stable crystalline form of salbutamol” (Boehringer Ingelheim Pharma GmbH & Co. KG, priority 2002, published 2004)
Values joined by “and” are separate entries in the source; they are usually repeats but may differ in a detail not shown here. Identical values can stand only once.

Legend:
Type in all cases: physicochemical
[1] = Recording of humidity (sorption behaviour of micronised, wrapped powder); conditions: unconditioned, stored at 55% RH
Experimental: Using a humidity sensor (Ebro, Ingolstadt, Germany) the sorption behaviour of the micronised and wrapped powder was measured. With the help of a humidity sensor it is possible to observe the sorption behaviour of the micronised, in a PE-bag wrapped, powder. Approx. 30 g of the freshly grinded substance are wrapped in a PE-bag together with a humidity sensor and afterwards closed.

[2] = Isothermal microcalorimetry (amorphous content / recrystallisation); conditions: for amorphous amount: micronised, stored in opened TWO-Glass at room temperature (21.5° C., 42% RH)
Experimental: The micronised powder underwent different conditioning settings in a climate chamber (Weiβ Klimatechnik GmbH, Reiskirchen-Lindstruth, Germany). The temperature was set at 25° C. and 40° C. and the relative humidity was varied in a field between 45% and 75%, respectively.
For “dry” conditioning settings the powders were prepared at a temperature of 70° C. in a thermal oven (Heraeus, Hanau, Germany).
The powder was investigated using a Thermal Activity Monitor (Type 2277, Thermometric, Sweden) at 25° C. The samples were weighted into a glass ampoule and a tube was added containing a saturated salt solution. The ampoule was sealed and equilibrated in the calorimeter for 5 min before lowering it into the measuring site.

[3] = Particle size analysis by powder laser diffraction (HELIOS, RODOS dry powder feeder)
Experimental: Micronised powders were prepared with a MC Jetmill 50 (Jetpharma, Balerna, Switzerland). The micronised powder underwent different conditioning settings in a climate chamber ([…] GmbH, […], Germany). The temperature was set at 25° C. and 40° C. and the relative humidity was varied in a field between 45% and 75%, respectively. For “dry” conditioning settings the powders were prepared at a temperature of 70° C. in a thermal oven (Heraeus, Hanau, Germany). […] Samples were introduced through the RODOS dry powder feeder. The supply pressure of the injector was at 3 bar.

[4] = Powder X-ray diffraction at different temperatures under vacuum; conditions: amorphous (produced by freeze-drying)
Experimental: The Powder X-Ray Diffraction (Bruker, Rheinstetten, Germany) patterns were acquired at different temperatures using Cu-K α radiation (λ=1.5406 Å). The data were collected over an angular range of 2-40°2θ using a step size of 0,014°2θ and a step time of 2 sec.

[5] = Table 1 batch, micronised powder, before conditioning
[6] = Table 2 batch, micronised powder, before conditioning
[7] = micronised powder conditioned 5 hours by 70° C. (dry)

CC(C)(C)NC[C@H](O)c1ccc(O)c(CO)c1 (racemic) [salbutamol sulphate]
recrystallisation on storage [1]: completely recrystallized within one week | recrystallisation after dry conditioning ([2]; 70° C. for 5 hours): does not lead to recrystallisation | reduction of the amorphous fraction ([2]; conditioning at 25° C. and 45% RH for 24 hours): 2.5% | crystallinity after conditioning ([2]; five hours of conditioning at 40° C. and 75% RH, partially amorphous powder): complete crystalline material | amorphous content ([2]; initial sample (micronised, before conditioning)): 7.7% | amorphous amount ([2]; after 1st week): 6.5% | amorphous amount ([2]; after 2nd week): 5.4% | amorphous amount ([2]; after 4th week): 4.5% | amorphous content ([2]; unconditioned powder, wrapped, stored four weeks at 21-23° C., approx. 45% RH): < 0.5% | effect of additional conditioning duration on particle size ([3]; 40° C. and 75% RH beyond five hours, storage under same conditions for two weeks): no effect on the particle size | Particle size 10% < [3, 5]: 0.83 μm | Particle size 50% < [3, 5]: 1.94 μm | Particle size 90% < [3, 5]: 4.53 μm | Particle size 10% < [3, 6]: 0.70 μm | Particle size 50% < [3, 6]: 1.30 μm and 1.53 μm | Particle size 90% < [3, 6]: 3.42 μm | Particle size 10% < ([3]; conditioned 24 h 55% RH 25° C.): 0.78 μm | Particle size 50% < ([3]; conditioned 24 h 55% RH 25° C.): 1.66 μm | Particle size 90% < ([3]; conditioned 24 h 55% RH 25° C.): 3.56 μm | Particle size 10% < ([3]; conditioned 24 h 55% RH 40° C.): 0.79 μm | Particle size 50% < ([3]; conditioned 24 h 55% RH 40° C.): 1.68 μm | Particle size 90% < ([3]; conditioned 24 h 55% RH 40° C.): 3.59 μm | Particle size 10% < ([3]; conditioned 24 h 65% RH 25° C.): 0.82 μm | Particle size 50% < ([3]; conditioned 24 h 65% RH 25° C.): 1.76 μm | Particle size 90% < ([3]; conditioned 24 h 65% RH 25° C.): 3.67 μm | Particle size 10% < ([3]; conditioned 24 h 65% RH 40° C.): 0.80 μm | Particle size 50% < ([3]; conditioned 24 h 65% RH 40° C.): 1.72 μm | Particle size 90% < ([3]; conditioned 24 h 65% RH 40° C.): 3.64 μm | Particle size 10% < ([3]; conditioned 24 h 75% RH 25° C.): 0.83 μm | Particle size 50% < ([3]; conditioned 24 h 75% RH 25° C.): 1.77 μm | Particle size 90% < ([3]; conditioned 24 h 75% RH 25° C.): 3.69 μm | Particle size 10% < ([3]; conditioned 24 h 75% RH 40° C.): 0.84 μm | Particle size 50% < ([3]; conditioned 24 h 75% RH 40° C.): 1.78 μm | Particle size 90% < ([3]; conditioned 24 h 75% RH 40° C.): 3.69 μm | uncontrolled particle growth in terms of particle diameters ([3]; dry conditioning, then four weeks of storage): up to 16% | Particle size 10% < [3, 7]: 0.82 μm | Particle size 50% < [3, 7]: 1.90 μm | Particle size 90% < [3, 7]: 4.45 μm | particle size on storage without conditioning ([3]; wrapped, stored 21-23° C., approx. 45% RH, up to three months): shows likewise particle growth | recrystallisation of amorphous material [4]: does not recrystallize under exclusion of humidity
